Results published in PMC5654082 (Malaria Journal, 2017).
Where a name gives a salt, the structure may show the parent alone.

Target: T1, MATE1 (Homo sapiens, UniProt Q96FL8)
T1 sequence (Q96FL8 1-570): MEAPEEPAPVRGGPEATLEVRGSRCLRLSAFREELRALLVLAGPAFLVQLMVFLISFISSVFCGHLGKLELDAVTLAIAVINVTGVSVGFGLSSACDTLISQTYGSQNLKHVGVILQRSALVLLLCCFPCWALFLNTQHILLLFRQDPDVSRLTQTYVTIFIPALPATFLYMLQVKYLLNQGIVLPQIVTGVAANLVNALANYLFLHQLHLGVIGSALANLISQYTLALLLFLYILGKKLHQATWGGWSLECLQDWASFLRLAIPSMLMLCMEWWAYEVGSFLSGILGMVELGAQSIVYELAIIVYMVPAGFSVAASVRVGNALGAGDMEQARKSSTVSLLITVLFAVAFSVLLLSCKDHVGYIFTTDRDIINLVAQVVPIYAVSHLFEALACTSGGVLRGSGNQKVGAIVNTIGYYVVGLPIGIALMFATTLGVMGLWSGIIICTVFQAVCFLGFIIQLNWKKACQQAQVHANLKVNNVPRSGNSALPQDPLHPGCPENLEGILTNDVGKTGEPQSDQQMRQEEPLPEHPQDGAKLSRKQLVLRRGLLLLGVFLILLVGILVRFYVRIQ
Assay: MATE1-mediated uptake in transduced HEK293 cells
Format: cell-based
Parameters: host or cells: HEK293, baculovirus transduction (CMV promoter), transient
Details: 100 µM, 5 min
Experimental: HEK293 cells were modified to transiently express (a combination of) human OCT1, OCT2, MATE1, MATE2-K, or eYFP. Briefly, cDNA of the respective genes was cloned downstream of a CMV promoter into a baculovirus, of which passage three was used to transduce HEK293 cells. These cells were seeded in poly-D-lysine coated 24- or 96-wells plates and grown in a 37 °C incubator at 5% CO2. Growth was initiated at ~ 25% confluency using 375 or 125 μL cell and complete medium (DMEM + GlutaMAX™-I supplemented with 10% fetal bovine serum) suspension per well, respectively. […]
Import and export of PG and cycloguanil (CG) was assessed by single and double transduced HEK293 cells. […] Following the same procedure as for the cellular import assay described above, the import of 100 µM PG and CG was measured after 5 min incubation and data was plotted as mean pmol/mg/min ± SEM. […] Significant reduction in uptake (i.e. export by MATEs) was determined using ln transformation and a one-way repeated measures ANOVA with Dunnet’s post test.
Anti-malarial concentration in the cell lysates was quantified using an LC–MS/MS system consisting of a UPLC, a binary solvent manager, a vacuum degasser and an autosampler, coupled to a Xevo TQ-S micro triple quadrupole mass spectrometer. […] The peak area of the most abundant product ion was used for quantification.

Structure (SMILES)	Uptake by MATE1 [pmol/mg/min]
[H]/N=C(\N/C(=N/[H])Nc1ccc(Cl)cc1)NC(C)C [Proguanil, proguanil hydrochloride]	430 ± 110
CC1(C)N=C(N)N=C(N)N1c1ccc(Cl)cc1 [Cycloguanil]	40 ± 9
